Converted amounts (≈) assume the structure as drawn.
Key:
[1] = system: Escherichia coli ΔlptD4213; assay: microbe, parasite or virus in culture; format: cell-based; conditions: read-out: Broth Microdilution MIC
Text: Reference strains for this study (S. aureus ATCC 29213, ATCC 29740 [bovine mastitis strain Newbould], S. epidermidis ATCC 12228, E. coli ATCC 35695, E. faecalis ATCC 29212) were obtained from the American Type Culture Collection (ATCC, Rockville, MD). S. aureus strains CMRSA-10 and CMRSA-2 were obtained from the Laboratoire de santé publique du Québec (LSPQ, Sainte-Anne-de-Bellevue, QC, Canada) and are Canadian CA-MRSA USA-300 and HA-MRSA USA-100 clones, respectively. The strain E. coli imp4213 (lptD), used as a control in MIC assays, is a derivative of E. coli ATCC 35695 (E. coli MC4100) with an increased membrane permeability. […] Other MRSA strains used in this study are clinical isolates of human origin obtained from the microbiology laboratory of the Centre Hospitalier Universitaire de Sherbrooke (CHUS, Sherbrooke, QC, Canada). Bovine mastitis strains (S. aureus, S. chromogenes, S. haemolyticus, S. hominis, S. simulans) were obtained from the Canadian Bovine Mastitis and Milk Quality Research Network (CBRQMN, St-Hyacinthe, QC, Canada). Among these strains, S. aureus 2117 is a high producer of biofilm and was used in the biofilm-eradication assay. S. epidermidis isolates were provided by Centre de Recherche en Infectiologie (CRI) de Québec (Québec, QC, Canada).

[2] = system: Bacillus subtilis xpt-lacZ; assay: Broth microdilution MIC; format: cell-based; conditions: B. subtilis xpt-lacZ, read-out: Broth Microdilution MIC
[3] = system: S. aureus bovine strain 2117 embedded in preformed biofilm; assay: Biofilm-eradication test (MBEC assay); format: cell-based, Staphylococcus aureus; conditions: 24 h exposure
Experimental: The viability of bacteria in preformed biofilms treated with PC206 was evaluated using the MBEC assay™ system (formerly the Calgary Biofilm Device). The device consists of a plastic lid with 96 pegs and a 96-well plate. […] Plates were incubated at 35 °C for 24 h with agitation (120 rpm). […] The pegs were washed three times with PBS and the biofilm was sonicated for 10 min, and then transferred into a new 96-well base plate. The 96-well plate was centrifuged for 5 min at 180 g to recover the detached bacteria.

MTT assay = format: cell-based; conditions: bovine, MAC-T cells
Metabolic stability = format: in vitro ADME; conditions: mouse, CD-1 female mice liver S9 fraction, 60 min, mono-exponential decay model, read-out: Half-life (T1/2)
Experimental: All incubations were performed minimally in triplicate. A total of 1 mL of mice liver S9 fraction (XenoTech, Kansas City, KS, USA) was fortified with 50 μL of NADPH-regenerating solution A and 10 μL of solution B (Corning BD Biosciences catalog no. 451200) and preincubated at 37 °C for 5 min prior to the addition of PC206. Immediately after fortification of PC206 into the mice liver S9 fraction containing the NADPH-regeneration system, the sampling points were taken at 2, 5, 10, 15, 30, 45 and 60 min for metabolic stability experiments (i.e., the substrate concentration was 10 μM). Samples of 50 μL were taken and mixed with 250 μL of the internal standard solution (caffeine) in microcentrifuge tubes. The samples were centrifuged at 12,000× g for 10 min and 200 μL of the supernatant was transferred into an injection vial for HPLC-MS analysis. A Q Exactive Orbitrap Mass Spectrometer was interfaced with a Vanquish Flex UHPLC system (Thermo Fisher Scientific, Rochester, NY, USA). […] Targeted drug quantification was performed by MS detection using specific precursor masses based on monoisotopic masses (i.e., [M + H]^+ ions). Quantification was performed by extracting specific precursor ions using a 5 ppm mass window.

Chemical stability = format: physicochemical

Compound: CCCCCCNc1cc(N)nc(N)n1 [PC206]
- MIC [1]: > 128 µg/mL
- MIC [2]: 128 µg/mL (≈ 612 µM)
- Reduction in CFU/peg compared to the untreated biofilm ([3]; 32 µg/mL): 1.28 log10
- Reduction in CFU/peg compared to the untreated biofilm ([3]; 128 µg/mL): 2.40 log10
- Reduction in CFU/peg compared to the untreated biofilm ([3]; 512 µg/mL): 5.43 log10
- CC50 at 24 h (MTT assay; 24 h): 317 ± 43 µM
- CC50 at 24 h (MTT assay; converted from μM): 66 µg/mL
- half-life at 10 µM (Metabolic stability): 1.39 h
- Stability in solution (Chemical stability): remains stable in solution

— article PMC10451377, “Rationally Designed Pyrimidine Compounds: Promising Novel Antibiotics for the Treatment of Staphylococcus aureus-Associated Bovine Mastitis” (Antibiotics, 2023)
